Read-outs that look alike come from different tables or passages of the source.
Columns and labels:
dopaminergic D3 receptor = dopaminergic D3 receptor (Homo sapiens, UniProt P35462); assay: Binding assay D3 (h), [3H]methyl-spiperone, CHO cells; parameters: expressed in transfected cells; host or cells: CHO cells; conditions: read-out: D3 [%]
Outline: (§1)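 Tested at 1×10^−6 M. Specific binding: total minus binding remaining with excess cold ligand. Detection: scintillation counting.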

adrenergic α1 receptor = assay: Binding assay α1 (non-selective), [3H]prazosin, rat cerebral cortex; conditions: percent inhibition of control specific binding; compounds tested at 1×10^−6 M
Outline: as §1

dopaminergic D2 receptor [1] = target: T1, dopaminergic D2 receptor (Homo sapiens, UniProt P14416); assay: Binding assay D2S (h), [3H]methyl-spiperone, HEK-293 cells; parameters: expressed in transfected cells; host or cells: HEK-293 cells; conditions: read-out: D2 [%]
Outline: as §1
Target sequence in this assay (P14416 1-414 isoform P14416-2): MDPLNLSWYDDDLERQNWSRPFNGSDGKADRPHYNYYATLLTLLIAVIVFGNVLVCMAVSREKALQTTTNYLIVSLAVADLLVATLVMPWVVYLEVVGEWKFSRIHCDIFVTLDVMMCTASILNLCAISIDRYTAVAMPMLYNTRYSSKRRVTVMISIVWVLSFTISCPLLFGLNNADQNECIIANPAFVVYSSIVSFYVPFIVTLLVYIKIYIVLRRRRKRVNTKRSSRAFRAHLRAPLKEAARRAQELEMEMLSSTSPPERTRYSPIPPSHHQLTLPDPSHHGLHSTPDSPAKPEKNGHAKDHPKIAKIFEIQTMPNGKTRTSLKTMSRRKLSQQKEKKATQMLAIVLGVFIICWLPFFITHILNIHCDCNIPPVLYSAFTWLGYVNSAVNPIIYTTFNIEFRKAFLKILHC

[2] = target: T2, serotoninergic 5-HT7 receptor (Homo sapiens, UniProt P34969); assay: Binding assay 5-HT7 (h), [3H]LSD, CHO cells; parameters: expressed in transfected cells; host or cells: CHO cells; conditions: read-out: 5-HT7
Outline: as §1

[3] = target: T3, serotoninergic 5-HT6 receptor (Homo sapiens, UniProt P50406); assay: Binding assay 5-HT6 (h), [3H]LSD, CHO cells; parameters: expressed in transfected cells; host or cells: CHO cells; conditions: read-out: 5-HT6
Outline: as §1

[4] = target: T4, serotonine transporter (SERT) receptor (Homo sapiens, UniProt P31645); assay: Binding assay SERT (h), [3H]imipramine, CHO cells; conditions: read-out: SERT [%]
T4 construct: expressed in transfected cells; host or cells: CHO cells
Outline: as §1

hERG potassium channels = hERG potassium channels (Homo sapiens, UniProt Q12809); assay: hERG potassium channel block, electrophysiology (IonWorks Quattro), CHO cells; conditions: % block of hERG current, cloned hERG channels in CHO cells, IonWorks Quattro
[5] = target: T5, serotoninergic 5-HT2A receptor (Homo sapiens, UniProt P28223); assay: Binding assay 5-HT2A (h), [3H]ketanserin, HEK-293 cells; parameters: expressed in transfected cells; host or cells: HEK-293 cells; conditions: read-out: 5-HT2A
Outline: as §1

[6] = target: T6, serotoninergic 5-HT1A receptor (Homo sapiens, UniProt P08908); assay: Binding assay 5-HT1A (h), [3H]8-OH-DPAT, HEK-293 cells; parameters: expressed in transfected cells; host or cells: HEK-293 cells; conditions: read-out: 5-HT1A
T6 sequence (P08908 1-422): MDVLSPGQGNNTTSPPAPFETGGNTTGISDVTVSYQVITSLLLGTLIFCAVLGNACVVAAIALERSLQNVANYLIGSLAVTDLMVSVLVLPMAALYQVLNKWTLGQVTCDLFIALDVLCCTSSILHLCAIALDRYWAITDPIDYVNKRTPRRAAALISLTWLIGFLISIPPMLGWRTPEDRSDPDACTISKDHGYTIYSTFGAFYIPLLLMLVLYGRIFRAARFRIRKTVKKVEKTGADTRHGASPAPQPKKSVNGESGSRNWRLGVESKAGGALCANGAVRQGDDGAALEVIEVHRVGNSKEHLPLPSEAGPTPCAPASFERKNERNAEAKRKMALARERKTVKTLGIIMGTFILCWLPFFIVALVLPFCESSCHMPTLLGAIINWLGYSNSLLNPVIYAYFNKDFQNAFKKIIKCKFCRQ
Outline: as §1

[7] = target: T6, serotoninergic 5-HT1A receptor; assay: Cellular functional assay, serotoninergic 5-HT1A receptor (agonism/antagonism); format: cell-based; conditions: for inhibition at 1 µM: CHO, read-out: 5-HT1A-antag. [%]; for activation at 1 µM: agonist effect, percent of control specific agonist response (100 nM 8-OH-DPAT for control), 1×10^−6 M, 5-HT1A (h), CHO cells, read-out: 5-HT1A-ag [%]
Procedure: (§2) The compounds were tested at the concentration of 1×10^−6M.
(§3) In the Tables ag refers to agonism, and antag to antagonism).

dopaminergic D2 receptor [8] = target: T1, dopaminergic D2 receptor; assay: Cellular functional assay, dopaminergic D2 receptor (agonism/antagonism); format: cell-based; conditions: for inhibition at 1 µM: read-out: D2-antag. [%]
Procedure: as §2, §3
Target sequence in this assay (P14416 whole entry): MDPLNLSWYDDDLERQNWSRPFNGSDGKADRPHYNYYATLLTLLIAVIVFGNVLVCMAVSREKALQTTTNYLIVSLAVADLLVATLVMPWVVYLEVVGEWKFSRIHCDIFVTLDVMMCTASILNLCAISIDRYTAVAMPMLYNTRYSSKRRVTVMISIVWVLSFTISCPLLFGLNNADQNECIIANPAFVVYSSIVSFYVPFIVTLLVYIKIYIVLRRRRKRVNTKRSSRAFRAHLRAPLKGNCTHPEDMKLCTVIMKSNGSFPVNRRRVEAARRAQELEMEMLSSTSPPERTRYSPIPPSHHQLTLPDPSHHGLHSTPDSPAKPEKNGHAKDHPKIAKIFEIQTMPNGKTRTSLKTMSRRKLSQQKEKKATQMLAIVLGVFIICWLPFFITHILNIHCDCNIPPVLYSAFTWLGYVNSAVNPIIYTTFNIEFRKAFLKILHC

[9] = target: histaminergic H1 receptor (Homo sapiens, UniProt P35367); assay: Binding assay H1 (h), [3H]pyrilamine, HEK-293 cells; parameters: expressed in transfected cells; host or cells: HEK-293 cells; conditions: read-out: H1 [%]
Outline: as §1

muscarinic M3 receptor = target: T7, muscarinic M3 receptor (Homo sapiens, UniProt P20309); assay: Binding assay M3 (h), [3H]4-DAMP, CHO cells; conditions: read-out: M3 [%]
T7 construct: expressed in transfected cells; host or cells: CHO cells
Outline: as §1

[10] = target: T2, serotoninergic 5-HT7 receptor; assay: Cellular functional assay, serotoninergic 5-HT7 receptor (agonism/antagonism); format: cell-based; conditions: for activation at 1 µM: agonist effect, percent of control specific agonist response, compounds tested at 1×10^−6M, read-out: 5-HT7-ag [%]; for inhibition at 1 µM: read-out: 5-HT7-antag. [%]
Procedure: as §2, §3

sigma σ receptor = assay: Binding assay σ (non-selective), [3H]DTG, rat cerebral cortex; conditions: percent inhibition of control specific binding; compounds tested at 1×10^−6 M
Outline: as §1

adrenergic α2C receptor = target: T8, adrenergic α2C receptor (Homo sapiens, UniProt P18825); assay: Binding assay α2C (h), [3H]RX 821002, CHO cells; parameters: expressed in transfected cells; host or cells: CHO cells; conditions: read-out: α2C [%]
T8 sequence (P18825 1-462): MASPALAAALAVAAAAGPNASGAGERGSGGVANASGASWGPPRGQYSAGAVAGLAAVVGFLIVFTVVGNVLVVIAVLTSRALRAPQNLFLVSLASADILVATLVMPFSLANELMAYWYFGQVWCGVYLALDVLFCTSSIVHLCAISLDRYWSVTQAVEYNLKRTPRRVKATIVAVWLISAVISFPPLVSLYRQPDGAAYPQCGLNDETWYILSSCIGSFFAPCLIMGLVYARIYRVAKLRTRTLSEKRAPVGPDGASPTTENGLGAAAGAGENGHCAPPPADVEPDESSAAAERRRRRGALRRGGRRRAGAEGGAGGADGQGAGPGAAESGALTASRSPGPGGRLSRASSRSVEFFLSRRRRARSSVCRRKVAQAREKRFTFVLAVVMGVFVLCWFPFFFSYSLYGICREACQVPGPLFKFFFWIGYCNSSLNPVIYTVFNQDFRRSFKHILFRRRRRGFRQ
Outline: as §1

[11] = target: T9, serotoninergic receptor 5-HT2C (Homo sapiens, UniProt P28335); assay: Binding assay 5-HT2C (h), [3H]mesulergine, HEK-293 cells; conditions: read-out: 5-HT2C [%]
T9 construct: expressed in transfected cells; host or cells: HEK-293 cells
T9 sequence (P28335 33-458): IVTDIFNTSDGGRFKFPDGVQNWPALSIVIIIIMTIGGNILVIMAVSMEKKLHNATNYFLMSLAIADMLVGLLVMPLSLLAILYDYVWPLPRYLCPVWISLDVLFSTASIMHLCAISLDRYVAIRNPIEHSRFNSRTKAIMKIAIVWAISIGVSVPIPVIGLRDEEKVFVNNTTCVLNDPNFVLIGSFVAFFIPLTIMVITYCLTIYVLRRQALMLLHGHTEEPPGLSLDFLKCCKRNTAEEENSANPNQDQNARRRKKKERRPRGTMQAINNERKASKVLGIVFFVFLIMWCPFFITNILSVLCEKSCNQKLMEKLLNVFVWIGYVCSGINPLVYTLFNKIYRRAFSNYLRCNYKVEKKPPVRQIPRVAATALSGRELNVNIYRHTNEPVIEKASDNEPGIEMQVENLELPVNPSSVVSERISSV
Outline: as §1

[12] = target: T5, serotoninergic 5-HT2A receptor; assay: Cellular functional assay, serotoninergic 5-HT2A receptor (agonism/antagonism); format: cell-based
Procedure: […]. The compounds were tested at the concentration of 1×10^−6M.
Conditions and methodology (by reference to the literature) of cellular functional assays are given in Table 13 and the tests results for representative compounds are given in Table 14 (dopaminergic receptor D2), in Table 15 (dopaminergic receptor D3), in Table 16 (serotoninergic receptor 5-HT1A), in Table 17 (serotoninergic receptor 5-HT2A), in Table 18 (serotoninergic receptor 5-HT6), in Table 19 (serotoninergic receptor 5-HT7), in Table 20 (adrenergic α1 receptor), in Table 21 (adrenergic α2C receptor), in Table 22 (histaminergic H1 receptor) and in Table 23 (serotoninergic 5-HT2C receptor). In the Tables ag refers to agonism, and antag to antagonism).

[13] = target: T3, serotoninergic 5-HT6 receptor; assay: Cellular functional assay, serotoninergic 5-HT6 receptor (agonism/antagonism); format: cell-based
Procedure: as §2, §3

[14] = HEK293, agonist effect, percent of control specific agonist response (3 μM dopamine for control), 1×10^−6 M, D2S (h), HEK-293 cells, read-out: D2-ag [%]

T4 sequence (P31645 whole entry): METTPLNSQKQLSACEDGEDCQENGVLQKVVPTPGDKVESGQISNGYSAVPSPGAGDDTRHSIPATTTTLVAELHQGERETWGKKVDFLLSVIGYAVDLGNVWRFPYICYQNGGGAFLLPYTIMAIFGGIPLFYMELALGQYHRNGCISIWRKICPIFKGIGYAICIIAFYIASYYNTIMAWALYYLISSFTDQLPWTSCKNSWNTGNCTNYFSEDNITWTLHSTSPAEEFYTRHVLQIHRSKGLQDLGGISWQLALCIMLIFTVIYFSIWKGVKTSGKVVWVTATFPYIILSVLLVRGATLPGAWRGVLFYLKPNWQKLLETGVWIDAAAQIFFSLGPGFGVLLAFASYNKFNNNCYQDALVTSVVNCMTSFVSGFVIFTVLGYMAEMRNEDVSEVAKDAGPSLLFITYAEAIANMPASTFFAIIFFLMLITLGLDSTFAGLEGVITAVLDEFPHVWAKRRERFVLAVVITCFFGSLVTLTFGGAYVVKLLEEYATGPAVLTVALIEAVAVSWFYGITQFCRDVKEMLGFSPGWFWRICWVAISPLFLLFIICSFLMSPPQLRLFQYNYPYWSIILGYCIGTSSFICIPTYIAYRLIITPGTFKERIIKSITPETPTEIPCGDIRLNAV
T2 sequence (P34969 whole entry): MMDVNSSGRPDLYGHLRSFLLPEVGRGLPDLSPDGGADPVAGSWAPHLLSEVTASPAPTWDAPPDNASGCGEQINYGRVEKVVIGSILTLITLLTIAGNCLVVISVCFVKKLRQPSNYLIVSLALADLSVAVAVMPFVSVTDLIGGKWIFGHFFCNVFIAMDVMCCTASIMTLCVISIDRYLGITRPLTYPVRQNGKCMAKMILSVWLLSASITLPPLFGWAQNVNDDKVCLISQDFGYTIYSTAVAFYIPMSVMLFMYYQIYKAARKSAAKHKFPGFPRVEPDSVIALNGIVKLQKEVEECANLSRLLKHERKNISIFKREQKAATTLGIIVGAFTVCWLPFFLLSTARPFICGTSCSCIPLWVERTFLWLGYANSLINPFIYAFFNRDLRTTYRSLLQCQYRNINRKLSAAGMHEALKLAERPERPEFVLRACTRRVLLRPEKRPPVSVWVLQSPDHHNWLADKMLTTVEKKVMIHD
T3 sequence (P50406 whole entry): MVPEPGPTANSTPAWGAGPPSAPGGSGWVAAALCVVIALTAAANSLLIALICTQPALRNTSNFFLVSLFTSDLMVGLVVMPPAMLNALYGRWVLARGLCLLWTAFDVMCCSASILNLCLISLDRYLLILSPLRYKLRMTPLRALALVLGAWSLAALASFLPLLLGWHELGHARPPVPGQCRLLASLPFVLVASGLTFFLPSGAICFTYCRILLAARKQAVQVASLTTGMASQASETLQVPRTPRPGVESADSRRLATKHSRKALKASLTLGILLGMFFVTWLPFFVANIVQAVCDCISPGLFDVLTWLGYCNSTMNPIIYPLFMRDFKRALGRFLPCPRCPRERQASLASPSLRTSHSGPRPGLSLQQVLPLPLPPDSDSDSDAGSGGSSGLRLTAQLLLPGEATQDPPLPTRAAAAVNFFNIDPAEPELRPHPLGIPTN
T5 sequence (P28223 whole entry): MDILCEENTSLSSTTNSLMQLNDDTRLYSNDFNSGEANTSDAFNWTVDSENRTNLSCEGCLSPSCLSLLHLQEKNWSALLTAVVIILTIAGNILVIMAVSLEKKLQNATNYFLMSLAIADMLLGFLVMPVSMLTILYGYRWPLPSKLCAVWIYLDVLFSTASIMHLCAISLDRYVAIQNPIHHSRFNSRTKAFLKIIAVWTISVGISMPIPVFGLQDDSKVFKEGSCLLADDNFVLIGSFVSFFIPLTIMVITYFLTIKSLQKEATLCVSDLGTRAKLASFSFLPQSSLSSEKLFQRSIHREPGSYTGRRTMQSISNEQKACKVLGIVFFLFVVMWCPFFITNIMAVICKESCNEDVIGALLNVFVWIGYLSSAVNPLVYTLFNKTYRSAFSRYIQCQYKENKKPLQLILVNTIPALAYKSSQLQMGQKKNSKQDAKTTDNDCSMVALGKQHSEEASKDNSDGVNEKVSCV
Sequence of dopaminergic D3 receptor (P35462 whole entry): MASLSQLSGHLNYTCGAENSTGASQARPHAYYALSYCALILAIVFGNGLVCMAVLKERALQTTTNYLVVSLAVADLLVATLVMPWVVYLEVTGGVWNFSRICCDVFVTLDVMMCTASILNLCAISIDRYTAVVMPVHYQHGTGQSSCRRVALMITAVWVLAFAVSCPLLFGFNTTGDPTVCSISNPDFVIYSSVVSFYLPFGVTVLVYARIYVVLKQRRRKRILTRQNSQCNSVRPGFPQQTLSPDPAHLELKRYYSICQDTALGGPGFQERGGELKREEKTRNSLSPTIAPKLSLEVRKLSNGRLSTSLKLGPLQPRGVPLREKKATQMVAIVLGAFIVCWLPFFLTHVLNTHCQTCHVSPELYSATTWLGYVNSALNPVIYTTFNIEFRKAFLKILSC
Sequence of hERG potassium channels (Q12809 whole entry): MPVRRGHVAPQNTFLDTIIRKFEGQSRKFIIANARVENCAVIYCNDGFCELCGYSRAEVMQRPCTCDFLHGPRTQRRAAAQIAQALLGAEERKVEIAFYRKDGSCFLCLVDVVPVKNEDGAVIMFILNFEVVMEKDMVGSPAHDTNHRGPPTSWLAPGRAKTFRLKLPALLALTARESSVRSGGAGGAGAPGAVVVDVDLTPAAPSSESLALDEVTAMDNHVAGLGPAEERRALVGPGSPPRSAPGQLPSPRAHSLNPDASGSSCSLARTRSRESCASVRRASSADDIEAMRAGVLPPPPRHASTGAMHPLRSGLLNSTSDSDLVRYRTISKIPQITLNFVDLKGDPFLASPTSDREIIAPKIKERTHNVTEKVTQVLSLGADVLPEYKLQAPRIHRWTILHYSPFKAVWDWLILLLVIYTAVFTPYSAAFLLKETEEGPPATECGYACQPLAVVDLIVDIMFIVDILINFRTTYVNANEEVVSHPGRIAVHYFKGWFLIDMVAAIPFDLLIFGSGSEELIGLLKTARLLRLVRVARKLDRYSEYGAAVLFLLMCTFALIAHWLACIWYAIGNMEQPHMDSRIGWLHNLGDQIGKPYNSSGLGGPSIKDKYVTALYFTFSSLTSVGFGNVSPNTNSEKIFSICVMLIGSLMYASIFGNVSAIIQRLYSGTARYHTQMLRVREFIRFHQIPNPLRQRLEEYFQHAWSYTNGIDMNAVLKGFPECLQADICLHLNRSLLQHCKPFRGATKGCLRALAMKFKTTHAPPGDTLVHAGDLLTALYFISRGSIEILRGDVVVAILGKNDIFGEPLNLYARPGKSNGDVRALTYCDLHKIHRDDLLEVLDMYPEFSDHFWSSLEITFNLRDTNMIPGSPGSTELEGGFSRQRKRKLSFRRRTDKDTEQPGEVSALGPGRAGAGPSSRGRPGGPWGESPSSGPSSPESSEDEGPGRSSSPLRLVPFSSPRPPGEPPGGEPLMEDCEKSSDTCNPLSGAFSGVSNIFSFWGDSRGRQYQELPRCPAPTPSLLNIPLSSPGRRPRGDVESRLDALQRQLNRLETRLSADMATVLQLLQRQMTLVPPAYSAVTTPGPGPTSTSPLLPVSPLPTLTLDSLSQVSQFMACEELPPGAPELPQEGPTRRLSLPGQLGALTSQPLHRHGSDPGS
Sequence of histaminergic H1 receptor (P35367 whole entry): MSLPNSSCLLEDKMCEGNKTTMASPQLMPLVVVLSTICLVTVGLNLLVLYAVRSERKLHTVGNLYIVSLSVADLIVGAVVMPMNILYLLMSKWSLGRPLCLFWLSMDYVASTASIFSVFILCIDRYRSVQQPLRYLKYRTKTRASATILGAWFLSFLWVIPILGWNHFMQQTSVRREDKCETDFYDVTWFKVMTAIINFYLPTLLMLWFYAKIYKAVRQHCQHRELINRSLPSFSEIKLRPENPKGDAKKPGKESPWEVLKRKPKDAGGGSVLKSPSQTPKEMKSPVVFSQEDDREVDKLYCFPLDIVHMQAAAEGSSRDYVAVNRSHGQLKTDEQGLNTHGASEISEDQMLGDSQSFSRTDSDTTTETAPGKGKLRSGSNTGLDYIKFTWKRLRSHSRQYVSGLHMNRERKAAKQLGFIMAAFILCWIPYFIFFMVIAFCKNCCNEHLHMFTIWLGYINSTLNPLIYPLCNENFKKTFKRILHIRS

O=S(=O)(NCCCCN1CCN(c2cccc3[nH]ccc23)CC1)c1ccc(C(F)(F)F)cc1 [Compound 360, N-[4-[4-(1H-Indol-4-yl)piperazin-1-yl]butyl]-4-(trifluoromethyl)benzenesulphonamide]
inhibition at 1 µM (dopaminergic D3 receptor): 100%
α1 [%] (adrenergic α1 receptor): 93%
inhibition at 1 µM (dopaminergic D2 receptor [1]): 99%
inhibition at 1 µM [2]: 100%
inhibition at 1 µM [3]: 67%
inhibition at 1 µM [4]: 8%
hERG [%] (hERG potassium channels): 5%
inhibition at 1 µM [5]: 67%
inhibition at 1 µM [6]: 83%

Cc1[nH]c2ccc(Cl)cc2c1C1=CCN(CCNS(=O)(=O)c2cccc(Cl)c2)CC1 [Compound 452, 3-Chloro-N-[2-[4-(5-chloro-2-methyl-1H-indol-3-yl)-3,6-dihydro-2H-pyridin-1-yl]ethyl]-benzenesulphonamide]
inhibition at 1 µM (dopaminergic D3 receptor): 14%
inhibition at 1 µM [7]: 7%
activation at 1 µM [7]: 30%
α1 [%] (adrenergic α1 receptor): 14%
inhibition at 1 µM (dopaminergic D2 receptor [1]): 42%
inhibition at 1 µM [2]: 41%
inhibition at 1 µM [3]: 108%
inhibition at 1 µM [4]: 18%
activation at 1 µM (dopaminergic D2 receptor [8]; HEK293, read-out: D2-ag [%]): 24%
inhibition at 1 µM (dopaminergic D2 receptor [8]; HEK293): 53%

O=S(=O)(NCCCCN1CCN(c2cccc3[nH]ccc23)CC1)c1c[nH]c2ncccc12 [Compound 31, N-{4-[4-(1H-Indol-4-yl)piperazin-1-yl]butyl}-1H-pyrrolo[2,3-b]pyridine-3-sulphonamide]
inhibition at 1 µM (dopaminergic D3 receptor): 96%
α1 [%] (adrenergic α1 receptor): 101%
inhibition at 1 µM (dopaminergic D2 receptor [1]): 38%
inhibition at 1 µM [2]: 87%
inhibition at 1 µM [3]: 18%
inhibition at 1 µM [4]: -2%
hERG [%] (hERG potassium channels): 2%
inhibition at 1 µM [5]: 36%
inhibition at 1 µM [6]: 82%

O=S(=O)(NCCCCN1CCN(c2cccc3[nH]ccc23)CC1)c1ccc(F)c(F)c1 [Compound 29, 3,4-Difluoro-N-{4-[4-(1H-indol-4-yl)piperazin-1-yl]butyl}benzenesulphonamide]
inhibition at 1 µM [9]: 74%
inhibition at 1 µM (muscarinic M3 receptor): 25%
inhibition at 1 µM (dopaminergic D3 receptor): 98%
activation at 1 µM [10]: 5%
inhibition at 1 µM [10]: 9%
inhibition at 1 µM [7]: 26%
activation at 1 µM [7]: 71%
α1 [%] (adrenergic α1 receptor): 99%
inhibition at 1 µM (dopaminergic D2 receptor [1]): 94%
inhibition at 1 µM [2]: 91%
inhibition at 1 µM [3]: 37%
inhibition at 1 µM [4]: 12%
activation at 1 µM (dopaminergic D2 receptor [8]; [14]): 45%
inhibition at 1 µM (dopaminergic D2 receptor [8]; HEK293): 99%
inhibition at 1 µM [5]: 64%
σ [%] (sigma σ receptor): 93%
inhibition at 1 µM (adrenergic α2C receptor): 98%
inhibition at 1 µM [6]: 99%
inhibition at 1 µM [11]: 11%

Cc1cccc(S(=O)(=O)NCCCCN2CCN(c3noc4ccccc34)CC2)c1 [Compound 15, N-(4-(4-(1,2-Benzoxazol-3-yl)piperazin-1-yl)butyl)-3-methylbenzenesulphonamide]
inhibition at 1 µM [9]: 84%
inhibition at 1 µM (muscarinic M3 receptor): -9%
inhibition at 1 µM (dopaminergic D3 receptor): 88%
activation at 1 µM [10]: 0%
inhibition at 1 µM [10]: 96%
α1 [%] (adrenergic α1 receptor): 102%
inhibition at 1 µM (dopaminergic D2 receptor [1]): 90%
inhibition at 1 µM [2]: 100%
inhibition at 1 µM [3]: 71%
inhibition at 1 µM [4]: -3%
activation at 1 µM (dopaminergic D2 receptor [8]; [14]): 2%
inhibition at 1 µM (dopaminergic D2 receptor [8]; HEK293): 88%
activation at 1 µM ([12]; read-out: 5-HT2A -ag [%]): -1%
inhibition at 1 µM ([12]; read-out: 5-HT2A -antag [%]): 100%
inhibition at 1 µM [5]: 99%
σ [%] (sigma σ receptor): 47%
activation at 1 µM ([13]; agonist effect, percent of control specific agonist response, compounds tested at 1×10^−6M, read-out: 5-HT6-ag [%]): 2%
inhibition at 1 µM ([13]; read-out: 5-HT6-antag. [%]): 21%
inhibition at 1 µM (adrenergic α2C receptor): 98%
inhibition at 1 µM [6]: 86%
inhibition at 1 µM [11]: 23%

— patent US8822517B2, “Arylosulfonamides for the treatment of CNS diseases” (Adamed SP. Z O.O., priority 2010, dated 2014)
